Laboratory results taken from paper PMC4216214 (Journal of Medicinal Chemistry, 2014).

How the values were obtained:
[1] = molecular target: T1, rNTS2 receptor (Rattus norvegicus, UniProt Q63384); assay: Calcium mobilization assay for NTS2 receptor; assay type: cell-based; details: calcium mobilization relative to 5b
T1 sequence (Q63384 1-416): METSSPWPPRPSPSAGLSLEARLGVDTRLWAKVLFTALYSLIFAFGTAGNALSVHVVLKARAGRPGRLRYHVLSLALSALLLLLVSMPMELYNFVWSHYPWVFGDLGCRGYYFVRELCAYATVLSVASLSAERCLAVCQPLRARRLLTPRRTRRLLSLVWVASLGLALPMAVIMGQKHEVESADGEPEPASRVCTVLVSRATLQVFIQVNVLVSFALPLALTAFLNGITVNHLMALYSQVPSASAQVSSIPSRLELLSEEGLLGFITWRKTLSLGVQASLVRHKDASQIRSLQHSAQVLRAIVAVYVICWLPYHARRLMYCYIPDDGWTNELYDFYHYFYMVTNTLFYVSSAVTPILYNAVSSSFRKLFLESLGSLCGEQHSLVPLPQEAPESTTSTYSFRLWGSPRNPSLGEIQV

[2] = molecular target: rNTS1 receptor (Rattus norvegicus, UniProt P20789); assay: Calcium mobilization assay for NTS1 receptor; assay type: cell-based; details: for activity at NTS1: NTS1 FLIPR calcium assay
Sequence of rNTS1 receptor (P20789 whole entry): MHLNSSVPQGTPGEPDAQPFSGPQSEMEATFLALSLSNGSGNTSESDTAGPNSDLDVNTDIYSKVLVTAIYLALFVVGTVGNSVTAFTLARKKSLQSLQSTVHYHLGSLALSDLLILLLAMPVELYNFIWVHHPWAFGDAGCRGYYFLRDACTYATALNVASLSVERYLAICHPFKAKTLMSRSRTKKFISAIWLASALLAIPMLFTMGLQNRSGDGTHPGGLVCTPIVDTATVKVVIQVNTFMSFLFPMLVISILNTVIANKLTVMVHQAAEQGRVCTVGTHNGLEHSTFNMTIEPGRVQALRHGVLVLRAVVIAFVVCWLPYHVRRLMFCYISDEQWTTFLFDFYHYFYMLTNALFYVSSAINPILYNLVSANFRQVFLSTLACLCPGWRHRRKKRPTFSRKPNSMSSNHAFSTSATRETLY

[3] = molecular target: T1, rNTS2 receptor; assay: Competitive [125I]NT whole-cell binding assay, CHO-k1 cells overexpressing rNTS2

SMILES	NTS2 Emax (FLIPR assay) [1]	Kb [2]	activity at NTS1 [2]	Ki [3]
COc1cccc(OC)c1-c1cc(C(=O)NC2(C(=O)O)C3CC4CC(C3)CC2C4)nn1-c1ccnc2cc(Cl)ccc12 (stereo not drawn) [Compound 5a]	100 % 5b	4.7 ± 0.8 nM	–	–
COc1ccccc1-c1cc(C(=O)NC2(C(=O)O)CCCCC2)nn1-c1ccc(F)cc1 [Compound 7b, 1-({[1-(4-Fluorophenyl)-5-(2-methoxyphenyl)-1H-pyrazol-3-yl]carbonyl}amino)cyclohexanecarboxylic Acid]	7±2 % 5b	–	neither calcium nor binding activity at NTS1	–
COc1cccc(OC)c1-c1cc(C(=O)NC2(C(=O)O)C3CC4CC(C3)CC2C4)nn1-c1ccc(C(=O)N(C)CCCN(C)C)cc1C(C)C (stereo not drawn) [Compound 5b]	–	1.5 ± 0.6 nM	–	–
C[C@@H]1CN([C@H]2CC[C@](C#N)(c3ccc(F)cc3)CC2)CC[C@]1(C(=O)O)c1ccccc1 [Compound 6, levocabastine]	16 % 5b	–	no activity at NTS1	–
COc1cccc(OC)c1-c1cc(C(=O)NC2C3CC4CC(C3)CC2C4)nn1-c1ccnc2cc(Cl)ccc12 (stereo not drawn) [Compound 13, 1-(7-Chloroquinolin-4-yl)-5-(2,6-dimethoxyphenyl)-N-tricyclo[3.3.1.13,7]dec-2-yl-1H-pyrazole-3-carboxamide]	–	–	inactive	> 11000 nM
